Where two headings read alike, the source gives them in different places.
What was measured:
Syk = target: T1, Syk (Homo sapiens, UniProt P43405); assay: DiscoveRx cellular platform, Syk; assay type: cell-based
T1 construct: DiscoveRx

Tyk2 = target: T2, Tyk2 (Homo sapiens, UniProt P29597); assay: DiscoveRx cellular platform, Tyk2; assay type: cell-based
T2 construct: DiscoveRx

[1] = system: JAK1/JAK3-dependent signaling pathways; assay: Cytokine-mediated STAT phosphorylation in peripheral blood mononuclear cells (phospho-flow cytometry); assay type: cell-based; conditions: Homo sapiens; PBMC; T cells and monocytes
[2] = system: IL-2 (JAK1/3-mediated signaling) STAT5 Y694 phosphorylation; assay: IL-2 stimulated STAT5 Y694 phosphorylation in human whole blood; assay type: cell-based
From the text: (§1) To evaluate downstream signaling following cytokine stimulation, human whole blood was stimulated with IL-2 (JAK1/3-mediated signaling), which results in phosphorylation of STAT5 at tyrosine residue 694 (Y694). […] IL-6 (JAK1/2/Tyk2) stimulation leads to STAT3 Y705 phosphorylation in monocytes.

[3] = system: IL-4 (JAK1/3-mediated) STAT6 Y641 phosphorylation; assay: IL-4 stimulated STAT6 Y641 phosphorylation in human whole blood; assay type: cell-based
From the text: as §1

[4] = system: IL-6 (JAK1/2/Tyk2) STAT3 Y705 phosphorylation; assay: IL-6 stimulated STAT3 Y705 phosphorylation in human whole blood; assay type: cell-based; conditions: Monocyte, monocytes
From the text: as §1

[5] = system: GM-CSF (JAK2-mediated) STAT5 Y694 phosphorylation; assay: GM-CSF stimulated STAT5 Y694 phosphorylation in human whole blood; assay type: cell-based; conditions: Monocyte, monocytes, read-out: IC50, GM-CSF induced STAT5 Y694 phosphorylation
[6] = system: monocyte differentiation into immature DCs; assay: IL-4/GM-CSF-mediated monocyte differentiation to immature dendritic cells (flow cytometry); assay type: cell-based; conditions: Homo sapiens, 120 h, purified monocytes, CD1a expression after five days
Description: Dendritic cells (DCs) are important antigen presenting cells that play an integral role in mediating inflammatory skin diseases. A subset of DCs are derived from monocytes and this differentiation is driven by IL-4/GM-CSF co-stimulation. The ability of DMVT-502 to disrupt the signaling responsible for monocyte differentiation into immature DCs was assessed by flow cytometry. […] Five days later, cells were stained for CD14 (monocyte marker) and CD1a (immature dendritic cell marker) and assessed for immature DC differentiation.

[7] = system: IL-4-mediated upregulation of CD23 and CD25 on monocytes; assay: IL-4-mediated upregulation of cell surface markers CD23 and CD25 on monocytes; assay type: cell-based; conditions: Homo sapiens, Monocyte
[8] = system: DNCB-induced atopic dermatitis; assay: DNCB-induced atopic dermatitis in the NC/Nga mouse model; assay type: in vivo
Description: Atopic dermatitis was induced by repeated application of DNCB (1-chloro-2,4-dinitrobenzene) to the dorsal skin of the ears/back. […] Lesions were evaluated on days 2, 8, 11, and 14.
Macroscopic lesion severity scores are depicted in FIG. 7. Macroscopic skin lesion severity was measured on the indicated Study Days by assessing (0-3 scale) the presence of erythema, edema, excoriation/erosion, and dryness scaling on the ears, neck, and dorsal skin of animals.
Serum IgE levels are depicted in FIG. 8. Serum samples obtained on Study Day 15 were utilized for IgE quantitation. Select cytokine data from the study are depicted in FIG. 9. Skin samples harvested on Day 15 were analyzed by LUMINEX for inflammatory cytokine levels for IL-4, IL-5, IL-13, and IL-31.

vitiligo = assay: Study DMVT-502-9025, mouse model of vitiligo; assay type: in vivo
Description: The model mimics human vitiligo by inducing epidermal depigmentation with autoreactive CD8+ T-cell accumulation. A schematic of the model is depicted in FIG. 15. […] Ten mice were used in the study: three REX3 reporter mice for cytokines CXCL9 and CXCL10 and seven SCF (stem cell factor) mice. The vitiligo study timeline is depicted in FIG. 16. The following assessments were performed during the study: • Blinded scoring of ears, tail, nose, and ventral feet (0-5 scale) • Epidermal, dermal, spleen, and lymph node PMEL (premelanosome protein) cell count • Epidermal/dermal APC (antigen-presenting cell) count • Keratinocyte cytokine expression

JAK1 = JAK1 (Homo sapiens, UniProt P23458); assay: cell-based
JAK2 = JAK2 (Homo sapiens, UniProt O60674); assay: cell-based
[9] = 30 and 60 mg/kg oral, vs vehicle

Chain of JAK1 (P23458 whole entry): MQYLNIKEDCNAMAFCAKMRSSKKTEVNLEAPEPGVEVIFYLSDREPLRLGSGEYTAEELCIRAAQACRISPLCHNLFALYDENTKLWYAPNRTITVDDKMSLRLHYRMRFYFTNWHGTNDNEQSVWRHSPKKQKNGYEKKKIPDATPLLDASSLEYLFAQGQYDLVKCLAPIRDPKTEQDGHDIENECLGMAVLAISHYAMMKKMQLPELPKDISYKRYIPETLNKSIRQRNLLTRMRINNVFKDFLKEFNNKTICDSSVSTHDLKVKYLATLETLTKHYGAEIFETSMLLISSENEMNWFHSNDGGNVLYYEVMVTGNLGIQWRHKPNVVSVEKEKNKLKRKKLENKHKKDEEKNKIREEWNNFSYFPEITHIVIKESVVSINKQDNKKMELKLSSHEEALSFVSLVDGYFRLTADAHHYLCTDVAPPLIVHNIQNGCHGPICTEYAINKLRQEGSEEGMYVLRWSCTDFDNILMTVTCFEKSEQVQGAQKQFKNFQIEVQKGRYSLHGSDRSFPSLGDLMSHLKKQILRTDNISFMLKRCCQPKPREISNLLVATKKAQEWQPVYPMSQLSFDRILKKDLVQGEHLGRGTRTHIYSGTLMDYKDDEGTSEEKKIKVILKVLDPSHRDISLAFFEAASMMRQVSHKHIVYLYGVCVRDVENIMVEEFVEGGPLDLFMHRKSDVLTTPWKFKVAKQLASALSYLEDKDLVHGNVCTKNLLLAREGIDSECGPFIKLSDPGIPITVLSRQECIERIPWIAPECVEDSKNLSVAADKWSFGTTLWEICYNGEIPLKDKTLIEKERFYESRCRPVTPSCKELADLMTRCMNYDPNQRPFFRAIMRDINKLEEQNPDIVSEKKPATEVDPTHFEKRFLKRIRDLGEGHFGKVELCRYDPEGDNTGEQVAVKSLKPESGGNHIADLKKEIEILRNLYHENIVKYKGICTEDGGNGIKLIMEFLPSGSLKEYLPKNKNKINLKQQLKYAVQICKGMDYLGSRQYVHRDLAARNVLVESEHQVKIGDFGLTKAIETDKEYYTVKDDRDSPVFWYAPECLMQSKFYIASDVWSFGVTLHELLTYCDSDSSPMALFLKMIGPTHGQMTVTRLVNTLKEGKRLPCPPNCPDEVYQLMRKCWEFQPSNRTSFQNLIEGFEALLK
Chain of JAK2 (O60674 whole entry): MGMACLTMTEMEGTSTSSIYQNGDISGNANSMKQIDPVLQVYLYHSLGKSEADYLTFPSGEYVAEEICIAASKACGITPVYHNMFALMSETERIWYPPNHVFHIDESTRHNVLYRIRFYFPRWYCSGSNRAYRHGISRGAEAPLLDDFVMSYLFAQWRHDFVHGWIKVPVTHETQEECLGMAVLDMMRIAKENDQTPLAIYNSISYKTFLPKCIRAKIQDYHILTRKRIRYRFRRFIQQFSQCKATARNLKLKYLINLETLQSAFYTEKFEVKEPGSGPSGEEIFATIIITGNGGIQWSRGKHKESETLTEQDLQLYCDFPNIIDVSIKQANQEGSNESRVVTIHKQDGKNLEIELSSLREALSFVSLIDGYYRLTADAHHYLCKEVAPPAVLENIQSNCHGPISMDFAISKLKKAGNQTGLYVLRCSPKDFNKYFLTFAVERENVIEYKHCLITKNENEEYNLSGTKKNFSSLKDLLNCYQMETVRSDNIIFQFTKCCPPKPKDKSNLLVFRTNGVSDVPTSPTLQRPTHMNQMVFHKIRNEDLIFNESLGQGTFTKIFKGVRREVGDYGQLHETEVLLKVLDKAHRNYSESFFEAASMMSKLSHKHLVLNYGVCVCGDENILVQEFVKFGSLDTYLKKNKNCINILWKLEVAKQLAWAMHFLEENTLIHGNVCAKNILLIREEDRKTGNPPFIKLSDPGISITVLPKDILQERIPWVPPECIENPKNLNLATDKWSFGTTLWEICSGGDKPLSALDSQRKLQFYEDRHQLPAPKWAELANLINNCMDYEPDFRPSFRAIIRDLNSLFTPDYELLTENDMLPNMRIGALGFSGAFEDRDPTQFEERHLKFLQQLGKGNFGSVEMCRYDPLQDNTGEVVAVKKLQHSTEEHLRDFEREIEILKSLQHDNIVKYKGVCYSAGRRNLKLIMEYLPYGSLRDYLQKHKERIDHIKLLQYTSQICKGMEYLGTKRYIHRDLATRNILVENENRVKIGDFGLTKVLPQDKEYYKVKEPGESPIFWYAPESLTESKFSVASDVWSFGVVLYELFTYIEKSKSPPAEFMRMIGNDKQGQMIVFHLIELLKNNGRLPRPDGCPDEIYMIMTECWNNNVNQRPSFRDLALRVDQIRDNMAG
T2 sequence (P29597 whole entry): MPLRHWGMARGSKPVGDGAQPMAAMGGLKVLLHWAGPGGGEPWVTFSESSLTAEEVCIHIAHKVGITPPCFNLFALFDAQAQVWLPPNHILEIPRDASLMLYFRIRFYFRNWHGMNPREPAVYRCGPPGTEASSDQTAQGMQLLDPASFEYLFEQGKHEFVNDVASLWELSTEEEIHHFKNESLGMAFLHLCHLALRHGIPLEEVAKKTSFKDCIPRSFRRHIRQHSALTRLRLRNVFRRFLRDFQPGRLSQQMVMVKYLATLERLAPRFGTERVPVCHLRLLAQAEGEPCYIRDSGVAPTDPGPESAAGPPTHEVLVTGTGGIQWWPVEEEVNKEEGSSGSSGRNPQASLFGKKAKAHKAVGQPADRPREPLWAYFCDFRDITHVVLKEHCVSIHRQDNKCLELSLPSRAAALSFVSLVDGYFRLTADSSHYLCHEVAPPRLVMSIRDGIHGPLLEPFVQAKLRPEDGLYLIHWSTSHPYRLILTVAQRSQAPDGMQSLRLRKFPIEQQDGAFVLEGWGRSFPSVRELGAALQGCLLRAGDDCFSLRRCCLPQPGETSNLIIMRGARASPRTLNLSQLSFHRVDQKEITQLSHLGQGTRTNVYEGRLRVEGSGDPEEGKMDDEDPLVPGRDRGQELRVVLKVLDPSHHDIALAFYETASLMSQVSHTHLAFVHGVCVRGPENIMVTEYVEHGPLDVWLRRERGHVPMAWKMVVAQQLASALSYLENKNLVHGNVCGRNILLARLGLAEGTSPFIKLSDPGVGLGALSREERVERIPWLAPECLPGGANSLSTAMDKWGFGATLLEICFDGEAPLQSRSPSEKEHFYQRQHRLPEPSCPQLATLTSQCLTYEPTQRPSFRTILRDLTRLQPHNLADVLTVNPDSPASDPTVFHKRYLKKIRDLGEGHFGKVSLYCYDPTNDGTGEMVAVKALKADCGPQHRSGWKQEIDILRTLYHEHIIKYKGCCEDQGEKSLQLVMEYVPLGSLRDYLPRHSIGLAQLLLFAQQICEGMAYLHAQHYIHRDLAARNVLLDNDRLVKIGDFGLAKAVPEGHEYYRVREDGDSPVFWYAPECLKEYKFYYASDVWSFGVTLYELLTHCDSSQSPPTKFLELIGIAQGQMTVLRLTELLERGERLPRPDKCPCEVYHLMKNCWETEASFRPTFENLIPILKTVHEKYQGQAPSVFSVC

Compound: CCS(=O)(=O)N1CCN(c2ccc(Nc3ncc(C(N)=O)c(NC4CC4)n3)cc2)CC1 [DMVT-502, Cerdulatinib]
- IC50 (Syk): 1280 nM
- IC50 (Tyk2): 1720 nM
- IC50 [1]: < 200 nM
- IC50 ([2]; CD4+ T cells): 300 nM
- IC50 ([2]; T-cell, CD8+ T cells): 160 nM
- IC50 ([3]; B-cell, CD19+ B cells): 920 nM
- IC50 ([3]; CD4+ T cells): 580 nM
- IC50 ([3]; Monocyte, CD14+ monocytes): 998 nM
- IC50 ([3]; T-cell, CD8+ T cells): 330 nM
- IC50 [4]: 260 nM
- IC50 [5]: ~4 µM
- IC50 [6]: ~100 nM
- IC50 ([7]; read-out: IC50, IL-4-mediated upregulation of CD23): 230 nM
- IC50 ([7]; read-out: IC50, IL-4-mediated upregulation of CD25): 420 nM
- Pro-inflammatory cytokine levels in skin ([8]; Day 15, topical treatment): limited suppression
- Serum IgE levels ([8]; Study Day 15, topical therapy): trends towards reduction
- CD3+, CD8− T-cell counts in the spleen (vitiligo; 60 mg/kg oral): significantly reduced
- Host T-cell counts in blood (vitiligo; 60 mg/kg oral): significantly decreased
- PMEL T-cell counts in dermis and blood (vitiligo; 60 mg/kg oral): significantly reduced
- APCs in the dermal skin compartment and Langerhans cells in the epidermal skin compartment (vitiligo; 60 mg/kg oral, vs vehicle): significantly reduced
- Vitiligo scores (vitiligo; 30 and 60 mg/kg once daily oral, 5 weeks, vs vehicle): significantly decreased
- Host-derived total T-cell counts in the spleen (vitiligo; 30 and 60 mg/kg oral): significantly reduced
- APC counts in lymph nodes and the spleen (vitiligo; [9]): significantly reduced
- PMEL T-cell counts in the epidermis and dermis (vitiligo; [9]): significantly reduced
- CXCL9 and CXCL10 expression in lymph node APCs (vitiligo; 30 or 60 mg/kg oral): Reduced
- Lymph node or spleen PMEL T cells (vitiligo; 30 or 60 mg/kg oral): no significant differences
- CXCL9, CXCL10, and dual expression in keratinocytes (vitiligo; SCF/REX3 mice, vs vehicle): trends towards reduced
- Total keratinocyte counts (vitiligo; between treatment groups): No decrease
- IC50 (JAK1): 98 nM
- IC50 (JAK2): 4.86 µM

— US20200390689A1, “CERDULATINIB-CONTAINING TOPICAL SKIN PHARMACEUTICAL COMPOSITIONS AND USES THEREOF” (Dermavant Sciences GmbH, priority 2018, published 2020)
